For orientation: IC50 means the concentration needed to halve the response being measured. Low readings indicate higher potency, high ones lower potency.

From patent US8629164B2, “Inhibitors of NF-κB” (Profectus Biosciences, Inc., priority 2009, dated 2014) come the findings set out here.

For one experiment, the target named is p65 (RelA) (Homo sapiens, UniProt Q04206). Kind of experiment: TransAM NF-κB Family DNA Binding ELISA, p65. The settings on record: p65 binding IC50 (uM), binding to NF-κB sites. For orientation: ELISA stands for enzyme-linked immunosorbent assay.
Chain of p65 (RelA) (Q04206 whole entry): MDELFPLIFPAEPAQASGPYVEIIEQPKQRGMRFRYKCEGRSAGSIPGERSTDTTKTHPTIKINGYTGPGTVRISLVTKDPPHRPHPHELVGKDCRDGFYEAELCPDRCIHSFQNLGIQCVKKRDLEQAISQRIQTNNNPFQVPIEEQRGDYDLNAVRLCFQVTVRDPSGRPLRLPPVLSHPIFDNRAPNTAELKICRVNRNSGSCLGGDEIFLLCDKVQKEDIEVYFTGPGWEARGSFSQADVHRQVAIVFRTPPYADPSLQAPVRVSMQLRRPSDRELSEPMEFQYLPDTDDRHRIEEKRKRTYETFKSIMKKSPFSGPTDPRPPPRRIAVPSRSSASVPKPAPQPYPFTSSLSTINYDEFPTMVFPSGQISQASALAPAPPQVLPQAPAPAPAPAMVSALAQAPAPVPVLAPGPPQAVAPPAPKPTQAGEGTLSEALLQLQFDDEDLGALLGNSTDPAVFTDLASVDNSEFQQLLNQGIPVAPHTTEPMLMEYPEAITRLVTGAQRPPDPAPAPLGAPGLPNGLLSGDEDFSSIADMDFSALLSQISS
In experiment [1] the test system is NF-κB. Kind of experiment: 293-cell pNF-κB-luc reporter assay, TNF-α induced. The settings on record: HEK293 cells, NF-κB driven luciferase expression, read-out: 293/NFkB-luc EC50. It is filed as cell-based. How it is done:
(§1) Inhibition of NF-κB in cells by the compound of Example 1. Two reporter cell assays were used to determine the ability of the compound of Example 1 to inhibit NE-KB driven transcription. The first assay was a 293-cell based assay with a stably integrated pNF-κB-luc reporter plasmid containing 3 NF-κB promoter elements. The second assay was a 293-cell based assay with a stably integrated pTRH1-NF-κB-dscGFP reporter containing 4 NF-κB promoter elements. Cells were treated with 0, 0.2, 1, 10, 20 and 40 μM of the compound of Example 1 for 2 hours then were induced with 20 ng/ml TNF-α for 18 hours. Following the induction, luminescence or fluorescence was quantified using a Beckman-Coulter 2300 plate reader. […] These values represent the median value generated from three independent experiments±the standard error. As a control, 0.5% DMSO treated and untreated cells were compared to verify that the Example 1 carrier had no effect on the expression of luciferase or in the readout of the assay. There was a slight decrease in the output from the assay in the DMSO treated population although it was not statistically significant. As a result of the controls, the decrease in activity in the drug treated samples was compared to the DMSO control sample.
In general terms: A reporter such as luciferase makes a cellular process visible.

Experiment [2] has as its system IL-6 release from RAW264.7 cells. Kind of experiment: IL-6 release from LPS stimulated RAW264.7 cells. It is filed as cell-based, mouse. As to the method: Specifically, A and B show the effects of the compound of Example 1 on soluble PGE2 and Il-6 secretion from RAW264.7 cells stimulated by 1 μg/mL of LPS. The cells were treated with the indicated concentrations of the compound of Example 1 for 2 hours, and then LPS was added and incubation continued for 4 hours. […]

For experiment [3], the system named is NF-κB. Put plainly: 293-cell pTRH1-NF-κB-dscGFP reporter assay, TNF-α induced. It counts as cell-based. The settings on record: NF-κB driven GFP expression, read-out: NF-kB/293/GFP EC50. How it is done:
as §1

For the next experiment, the target named is T1, p50 (Homo sapiens, UniProt P19838).
T1 sequence (P19838 1-433 limits assumed): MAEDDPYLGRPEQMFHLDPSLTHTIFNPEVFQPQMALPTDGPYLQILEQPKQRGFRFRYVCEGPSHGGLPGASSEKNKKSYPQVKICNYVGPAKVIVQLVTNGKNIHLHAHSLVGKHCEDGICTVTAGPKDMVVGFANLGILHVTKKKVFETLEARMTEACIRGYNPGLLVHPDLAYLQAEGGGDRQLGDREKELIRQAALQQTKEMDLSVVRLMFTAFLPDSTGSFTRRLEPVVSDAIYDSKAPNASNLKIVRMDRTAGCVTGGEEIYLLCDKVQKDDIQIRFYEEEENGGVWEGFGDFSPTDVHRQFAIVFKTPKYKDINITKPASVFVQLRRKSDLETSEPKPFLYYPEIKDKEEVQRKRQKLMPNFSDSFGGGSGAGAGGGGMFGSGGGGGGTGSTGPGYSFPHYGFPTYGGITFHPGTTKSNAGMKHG
Kind of experiment: TransAM NF-κB Family DNA Binding ELISA, p50. The conditions noted are these: p50 binding IC50 (uM), cells without % sign.

The next experiment concerns the target T2, p52 (Homo sapiens, UniProt Q00653).
T2 sequence (Q00653 1-454 limits assumed): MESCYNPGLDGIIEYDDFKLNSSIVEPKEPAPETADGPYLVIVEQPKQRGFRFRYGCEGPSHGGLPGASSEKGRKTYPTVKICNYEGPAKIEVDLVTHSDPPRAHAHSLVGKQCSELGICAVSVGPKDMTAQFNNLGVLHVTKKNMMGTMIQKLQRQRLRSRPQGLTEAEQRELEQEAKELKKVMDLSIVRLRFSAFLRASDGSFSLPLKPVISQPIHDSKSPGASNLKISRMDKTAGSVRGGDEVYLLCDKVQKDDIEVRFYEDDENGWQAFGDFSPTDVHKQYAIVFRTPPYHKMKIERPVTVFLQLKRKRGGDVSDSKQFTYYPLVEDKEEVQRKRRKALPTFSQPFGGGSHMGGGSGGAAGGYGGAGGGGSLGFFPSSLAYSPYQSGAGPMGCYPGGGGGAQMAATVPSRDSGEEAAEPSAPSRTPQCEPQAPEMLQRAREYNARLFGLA
Put plainly: TransAM NF-κB Family DNA Binding ELISA, p52. The conditions noted are these: p52 binding IC50 (uM), cells without % sign.

[4] abbreviates: RAW 264.7 cells, trifluoroacetate.
Where [5] appears, read: Mus musculus, RAW264.7, RAW 264.7 cells.
[6] abbreviates: Homo sapiens, HEK293, HEK293 cells.

Structures can show the parent of a compound that is named as a salt.

Description for p50: (§2) Treated samples were then transferred to 30 μL Complete Binding Buffer (with DTT) in microplate wells pre-coated with the NF-κB consensus oligonucleotide. […] The plate was incubated for 1 hour at room temperature with gentle shaking and then washed 3 times with 200 μL 1× Wash Buffer. NF-κB p65, p50, p52, RelB, or c-Rel subunits bound to the plate were detected with 100 μL of the primary antibody (diluted 1:1000 in 1× Antibody Buffer) specific for that subunit. The plate was incubated for 1 hour at room temperature and then washed 3 times with 200 μL 1× Wash Buffer. Next, 100 μL of a HRP conjugated goat anti-rabbit antibody (diluted 1:1,000 in 1× Antibody Buffer) was added to each well. The plate was incubated for 1 hour at room temperature and then washed 4 times with 200 μL 1× Wash Buffer. 100 μL of room temperature Developing Solution was added to each well. The reaction was allowed to develop for 2-10 minutes until a medium dark blue color developed (depending on the subunit activity in the lot of extract or lot of recombinant protein used) and then the reaction was stopped with 100 μL Stop Solution yielding a yellow color. Absorbance was recorded using a Becton-Dickinson DTX 880 Multimode Detector at 450 nm with a reference wavelength subtracted at 620 nm.
Description for p65 (RelA): as §2

On p65 (RelA), `COc1cccnc1C(=O)NC1=CC(=O)C2OC2C1O` (racemic) [Example 22, (±)-3-methoxy-pyridine-2-carboxylic acid (2-hydroxy-5-oxo-7-oxa-bicyclo[4.1.0]hept-3-en-3-yl)-amide trifluoroacetate] gave an IC50 of 13.2 µM. Moreover, the EC50 (with NF-κB [1] (trifluoroacetate); in experiment [2] (setting [4])) was > 34 µM throughout.
As for `O=C(NC1=CC(=O)C2OC2C1O)c1ccc(C(F)(F)F)nc1O` (racemic) [Example 23, (±)-2-hydroxy-N-(2-hydroxy-5-oxo-7-oxa-bicyclo[4.1.0]hept-3-en-3-yl)-6-trifluoromethyl-nicotinamide], the IC50 at p65 (RelA) was determined as 6.4 µM. For the same molecule, the EC50 in the experiment on NF-κB [1] is > 40 µM; in experiment [2] (setting [5]) it was 24.8 µM; with NF-κB [3] (setting [6]), > 40 µM.
As to `Cc1ncc(C(=O)NC2=CC(=O)C3OC3C2O)c(O)n1` (racemic) [Example 24, (±)-4-hydroxy-2-methyl-pyrimidine-5-carboxylic acid (2-hydroxy-5-oxo-7-oxa-bicyclo[4.1.0]hept-3-en-3-yl)-amide], the IC50 at p65 (RelA) was determined as 2.3 µM. The EC50 in the experiment on NF-κB [1] is > 48 µM; in experiment [2] (setting [5]), 27.1 µM; with NF-κB [3] (setting [6]) it was > 48 µM.
`O=C(NC1=CC(=O)C2OC2C1O)c1nc(Cl)c2ccccc2c1O` (racemic) [Example 27, (±)-1-chloro-4-hydroxy-isoquinoline-3-carboxylic acid (2-hydroxy-5-oxo-7-oxa-bicyclo[4.1.0]hept-3-en-3-yl)-amide] yielded an IC50 on p65 (RelA) of 30 µM. Moreover, the EC50 was determined as 9.7 µM in the experiment on NF-κB [1], 0.71 µM in experiment [2] (setting [5]) and 6.7 µM with NF-κB [3] (setting [6]).
In the case of `COc1ncccc1C(=O)NC1=CC(=O)C2OC2C1=O` (racemic) [Example 30, (±)-N-(2,5-Dioxo-7-oxa-bicyclo[4.1.0]hept-3-en-3-yl)-2-methoxy-nicotinamide], the values for the IC50 at p65 (RelA), on p50 and on p52 were 36 µM, > 608 µM and > 608 µM, respectively. For the same molecule, the EC50 in the experiment with NF-κB [1] came to 2.7 µM; in experiment [2] (setting [5]), 0.76 µM; in the experiment with NF-κB [3] (setting [6]) it was 4.3 µM.
Regarding `COc1cc2ccccc2nc1C(=O)NC1=CC(=O)C2OC2C1O` (racemic) [Example 31, (±)-N-(2-hydroxy-5-oxo-7-oxabicyclo[4.1.0]hept-3-en-3-yl)-3-methoxyquinoline-2-carboxamide], the values for the IC50 at p65 (RelA), on p50 and on p52 were 38 µM, 28 µM and 21 µM, respectively. Also, the values for the EC50 (in the experiment on NF-κB [1]; in experiment [2] (setting [5]); with NF-κB [3] (setting [6])) were 3.9 µM, 1 µM and 5.6 µM, respectively.
With `COc1c(C(=O)NC2=CC(=O)C3OC3C2=O)ccc2cccnc12` (racemic) [Example 32, (±)-N-(2,5-diose-7-oxabicyclo[4.1.0]hept-3-en-3-yl)-8-methoxyquinoline-7-carboxamide], the results for the IC50 at p65 (RelA), on p50 and on p52 were 30 µM, > 514 µM and > 514 µM, respectively. The EC50 was 3.4 µM in the experiment on NF-κB [1], 0.24 µM in experiment [2] (setting [5]) and 3 µM in the experiment with NF-κB [3] (setting [6]).
As to `COc1c(C(=O)NC2=CC(=O)C3OC3C2O)ccc2cccnc12` (racemic) [Example 33, (±)-N-(2-hydroxy-5-oxo-7-oxabicyclo[4.1.0]hept-3-en-3-yl)-8-methoxyquinoline-7-carboxamide trifluoroacetate], the IC50 at p65 (RelA) is 4.8 µM; on p50, > 378 µM; at p52, > 378 µM. Further, the EC50 in the experiment with NF-κB [1] (trifluoroacetate) was 0.53 µM; in experiment [2] (setting [4]) it was 0.26 µM; in the experiment with NF-κB [3] (HEK293 cells, trifluoroacetate), 2 µM.
In the case of `O=C(NC1=CC(=O)C2OC2C1=O)c1ccncc1O` (racemic) [Example 34, (±)-N-(2,5-dioxo-7-oxabicyclo[4.1.0]hept-3-en-3-yl)-3-hydroxyisonicotinamide], the IC50 on p65 (RelA) came to 12 µM; on p50, 90 µM; at p52, 96 µM. The EC50 in the experiment on NF-κB [1] was > 51 µM; in experiment [2] (setting [5]) it was 42 µM; with NF-κB [3] (setting [6]) it was 39 µM.
